In brackets after ≈: the same amount, converted by molar mass.
Key:
[1] = Solubility at pH 7.4; format: physicochemical; conditions: buffer
[2] = Oral bioavailability in rat at 10 mg/kg; format: ADME, organism-based; conditions: in vivo
in vitro [3] = conditions: human, liver microsomes
in vivo [4] = conditions: rat, iv, 1 mg/kg
in vivo [5] = conditions: rat
in vitro [6] = conditions: rat, liver microsomes
in vivo [7] = conditions: rat, plasma

Compound | solubility [1] [µg/mL] | bioavailability [2] [%] | half-life (in vitro [3]) [min] | clearance (in vivo [4]) [mL/min/kg] | AUC (in vivo [5]) [ng·h/mL] | half-life (in vitro [6]) [min] | half-life (in vivo [7]) [min]
O=C(Nc1cc2cc[nH]c(=O)c2cc1Cl)C(NC1CC1)c1ccccc1 (stereo not drawn) | 16 (≈ 43.5 µM) | 64 | 21 | 82 | 1290 | 7 | 162
CN(C)C(C(=O)Nc1cc2cc[nH]c(=O)c2cc1Cl)c1ccccc1 (stereo not drawn) | 6 (≈ 16.9 µM) | 2 | – | – | 30 | – | –
C[C@@H](N)[C@H]1CC[C@H](C(=O)Nc2ccncc2)CC1.Cl.Cl | > 32 | – | > 90 | – | – | – | –
O=S(=O)(c1cccc2cnccc12)N1CCCNCC1 [FASUDIL] | > 60 | – | – | – | – | – | –
